Test results taken from ChEMBL document CHEMBL1147457, “Thiourea inhibitors of herpes viruses. Part 2: N-Benzyl-N'-arylthiourea inhibitors of CMV” (Bioorg Med Chem Lett, 2004).

Key:
[1] = test system: Respiratory syncytial virus; assay: Inhibitory activity against respiratory syncytial virus was determined; assay type: functional, organism-based; conditions: human respiratory syncytial virus
[2] = test system: Human alphaherpesvirus 3; assay: Inhibitory activity against varicella zoster virus was determined; assay type: functional, organism-based
[3] = test system: Human alphaherpesvirus 2; assay: Inhibitory activity against herpes simplex virus was determined; assay type: functional, organism-based
[4] = test system: Cytomegalovirus; assay: Inhibitory activity against cytomegalo virus was determined; assay type: functional, organism-based; conditions: Human betaherpesvirus 5
[5] = Inhibitory activity against MTS host cell toxicity was determined; assay type: functional

| Compound | IC50 [1] | IC50 [2] | IC50 [3] | IC50 [4] | IC50 [5] |
| --- | --- | --- | --- | --- | --- |
| CC(/N=C(\S)Nc1ccc(NC(=O)c2csnn2)cc1)c1cc(C(F)(F)F)cc(C(F)(F)F)c1 (configuration not stated) | > 5 µM | > 3.7 µM | > 5 µM | 0.003 µM | > 7.5 µM |
| C[C@H](/N=C(\S)Nc1ccc(NC(=O)c2csnn2)nc1)c1cc(C(F)(F)F)cc(C(F)(F)F)c1 | > 5 µM | > 3.7 µM | 4.1 µM | 0.003 µM | 8 µM |
| C[C@H](/N=C(\S)Nc1ccc(NC(=O)c2cscn2)nc1)c1cc(C(F)(F)F)cc(C(F)(F)F)c1 | > 5 µM | > 3.7 µM | > 5 µM | 0.002 µM | > 7.5 µM |
| O=C(Nc1ccc(N/C(S)=N/Cc2cc(C(F)(F)F)cc(C(F)(F)F)c2)cn1)c1csnn1 | > 5 µM | > 3.7 µM | > 5 µM | 0.0044 µM | > 7.5 µM |
| O=C(Nc1ccc(N/C(S)=N/Cc2cc(C(F)(F)F)cc(C(F)(F)F)c2)cc1)c1csnn1 | > 5 µM | > 5 µM | > 5 µM | 0.002 µM | – |
| CCC(/N=C(\S)Nc1ccc(NC(=O)c2csnn2)cc1)c1cc(C(F)(F)F)cc(C(F)(F)F)c1 (configuration not stated) | > 5 µM | > 3.7 µM | 5 µM | 0.001 µM | > 7.5 µM |
| CCC(/N=C(\S)Nc1ccc(NC(=O)c2cscn2)cc1)c1cc(C(F)(F)F)cc(C(F)(F)F)c1 (configuration not stated) | > 5 µM | > 3.7 µM | 4.1 µM | 0.0002 µM | > 7.5 µM |
| CC(C)(/N=C(\S)Nc1ccc(NC(=O)c2csnn2)cc1)c1cc(C(F)(F)F)cc(C(F)(F)F)c1 | > 5 µM | > 3.7 µM | > 5 µM | 0.004 µM | > 7.5 µM |
| C[C@@H](/N=C(\S)Nc1ccc(NC(=O)c2cscn2)nc1)c1cc(C(F)(F)F)cc(C(F)(F)F)c1 | 1 µM | > 3.7 µM | > 5 µM | 0.0028 µM | > 7.5 µM |
| C[C@@H](/N=C(\S)Nc1ccc(NC(=O)c2cscn2)cc1)c1cc(C(F)(F)F)cc(C(F)(F)F)c1 | 2 µM | > 3.7 µM | > 5 µM | 0.0015 µM | > 7.5 µM |
| CCCC(/N=C(\S)Nc1ccc(NC(=O)c2csnn2)cc1)c1cc(C(F)(F)F)cc(C(F)(F)F)c1 (configuration not stated) | > 5 µM | > 3.7 µM | > 5 µM | 0.001 µM | > 7.5 µM |

The next lines start with results.

| IC50 [1] | IC50 [2] | IC50 [3] | IC50 [4] | Compound | IC50 [5] |
| --- | --- | --- | --- | --- | --- |
| > 5 µM | > 5 µM | > 5 µM | 0.016 µM | O=C(Nc1ccc(/N=C(\S)Nc2cc(C(F)(F)F)cc(C(F)(F)F)c2)cc1)c1cscn1 | – |
| > 5 µM | > 3.7 µM | > 5 µM | 0.002 µM | O=C(Nc1ccc(N/C(S)=N/C(c2ccccc2)c2cc(C(F)(F)F)cc(C(F)(F)F)c2)cc1)c1csnn1 (configuration not stated) | > 7.5 µM |
| > 5 µM | > 3.7 µM | > 5 µM | 0.003 µM | C[C@H](/N=C(\S)Nc1ccc(NC(=O)c2csnn2)cc1)c1cc(C(F)(F)F)cc(C(F)(F)F)c1 | > 7.5 µM |
| > 5 µM | > 3.7 µM | > 5 µM | 0.0006 µM | C[C@H](/N=C(\S)Nc1ccc(NC(=O)c2cscn2)cc1)c1cc(C(F)(F)F)cc(C(F)(F)F)c1 | > 7.5 µM |
| 5 µM | > 5 µM | > 5 µM | 0.037 µM | O=C(Nc1ccc(/N=C(\S)Nc2cc(C(F)(F)F)cc(C(F)(F)F)c2)cc1)c1csnn1 | – |
